{"source": "patent US12486245B2", "about": "“Sequential multi-step flash nanoprecipitation for the formation of nanoparticles with high core loadings” (The Trustees of Princeton University, priority 2019, dated 2025)", "assay": "Water solubility", "format": "physicochemical", "data": [{"molecule": "CCCCOc1ccc(OCCCC)c2c1-c1nc3nc(nc4[nH]c([nH]c5nc(nc-2n1)-c1c(OCCCC)ccc(OCCCC)c1-5)c1c(OCCCC)ccc(OCCCC)c41)-c1c(OCCCC)ccc(OCCCC)c1-3", "note": "[762Pc, 1,4,8,11,15,18,22,25-Octabutoxy-29H,31H-phthalocyanine]", "values": [{"measurement": "water solubility", "value": "negligible"}]}]}
